Reference: US9326513B2, “Fungicidal compositions” (Syngenta Participations AG, priority 2011, dated 2016)

What was measured:
Assay type in all cases: in vivo
Conditions in all cases: foliar, compared to untreated control leaf disks, read-out: disease control
[1] = tested on: Blumeria graminis f. sp. tritici (Erysiphe graminis f. sp. tritici); experiment: Blumeria graminis f. sp. tritici / wheat / leaf disc preventative (powdery mildew on wheat)
How it was run: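 Preventative leaf-disc test: compound (200 ppm) was sprayed onto cv. Kanzler wheat segments, which were dusted with conidia from infected plants 1 day after application. After incubation at 20° C and 60% rh, disease control relative to untreated segments was rated 6-8 days after application.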

[2] = tested on: Puccinia recondita f. sp. tritici; experiment: Puccinia recondita f. sp. tritici / wheat / leaf disc preventative (brown rust)
Excerpt: Puccinia recondita f. sp. tritici/Wheat/Leaf Disc Preventative (Brown Rust) Wheat leaf segments cv. Kanzler were placed on agar in multiwell plates (24-well format) and sprayed with the formulated test compound diluted in water. The leaf disks were inoculated with a spore suspension of the fungus 1 day after application.

[3] = tested on: Puccinia recondita f. sp. tritici; experiment: Puccinia recondita f. sp. tritici / wheat / leaf disc curative (brown rust)
Description: Puccinia recondita f. sp. tritici/Wheat/Leaf Disc Curative (Brown Rust) Wheat leaf segments cv. Kanzler are placed on agar in multiwell plates (24-well format). The leaf segments are inoculated with a spore suspension of the fungus. Plates were stored in darkness at 19° C. and 75% rh. The formulated test compound diluted in water was applied 1 day after inoculation.

Pyrenophora teres = Pyrenophora teres / barley / leaf disc preventative (net blotch)
Excerpt: Pyrenophora teres/Barley/Leaf Disc Preventative (Net Blotch) Barley leaf segments cv. Hasso were placed on agar in a multiwell plate (24-well format) and sprayed with the formulated test compound diluted in water. The leaf segments were inoculated with a spore suspension of the fungus 2 days after application.

Measured: pest or weed control at 200 ppm

CCN(C)/C=N/c1cc(Br)c(OC(C)c2ccncc2)nc1C (stereo not shown) [Q.117]
≥ 50%: all assays above

CCc1cccc(C(C)Oc2nc(C)c(/N=C/N(C)CC)cc2Br)c1 (stereo not shown) [Q.284]
≥ 50%: all assays above

CCN(C)/C=N/c1cc(Br)c(OC(C)c2ccccc2Cl)nc1C (stereo not shown) [Q.301]
≥ 50%: all assays above

CCN(C)/C=N/c1cc(Br)c(OCCc2cccc(F)c2)nc1C [Q.116]
≥ 50%: all assays above

C=CCCCOc1nc(C)c(/N=C/N(C)CC)cc1C [Q.057]
≥ 50%: all assays above

CCN(C)/C=N/c1cc(Br)c(OCCCCc2ccc(Br)cc2)nc1C [Q.047]
≥ 50%: all assays above

CCN(C)/C=N/c1cc(Br)c(OCc2cccc(Br)c2)nc1C [Q.101]
≥ 50%: all assays above

CCN(C)/C=N/c1cc(Br)c(OC2CC(C)C(C)C2)nc1C (stereo not shown) [Q.382]
≥ 50%: all assays above

CCN(C)/C=N/c1cc(Br)c(OCC2CCCc3ccccc32)nc1C (stereo not shown) [Q.226]
≥ 50%: all assays above

CCN(C)/C=N/c1cc(Br)c(OCc2ccccc2S(C)(=O)=O)nc1C [Q.337]
≥ 50%: all assays above

CCN(C)/C=N/c1cc(Br)c(OC2CCC(C)CC2)nc1C (stereo not shown) [Q.141]
≥ 50%: all assays above

CCCC(C)Oc1nc(C)c(/N=C/N(C)CC)cc1Br (stereo not shown) [Q.146]
≥ 50%: all assays above

CCN(C)/C=N/c1cc(Br)c(O[C@H]2C[C@@H]3ON=C(C)[C@@H]3C2)nc1C [Q.070]
≥ 50%: all assays above

CCN(C)/C=N/c1cc(Br)c(OCC#Cc2ccccc2)nc1C [Q.016]
≥ 50%: all assays above

C=C1CCC(Oc2nc(C)c(/N=C/N(C)CC)cc2Br)CC1 [Q.293]
≥ 50%: all assays above

CCN(C)/C=N/c1cc(I)c(OC(C)c2cc(F)cc(F)c2)nc1C (stereo not shown) [Q.178]
≥ 50%: all assays above

C/C=C(\C)CCCOc1nc(C)c(/N=C/N(C)CC)cc1Br [Q.133]
≥ 50%: all assays above

CCN(C)/C=N/c1ccc(OC(C)c2cc(C)cc(C)c2)nc1C (stereo not shown) [Q.358]
≥ 50%: all assays above

CCN(C)/C=N/c1cc(Br)c(OC(C)c2cc(C)no2)nc1C (stereo not shown) [Q.074]
≥ 50%: all assays above

CCN(C)/C=N/c1cc(Br)c(OC2CCc3ccc(OC)cc3C2)nc1C (stereo not shown) [Q.018]
≥ 50%: all assays above

CCN(C)/C=N/c1cc(Br)c(OC2CCN(C(C)=O)CC2)nc1C [Q.160]
≥ 50%: all assays above

CCN(C)/C=N/c1cc(Br)c(OC2CCN(S(C)(=O)=O)CC2)nc1C [Q.163]
≥ 50%: all assays above

CCN(C)/C=N/c1cc(Br)c(OCC#Cc2cccc(OC)c2)nc1C [Q.020]
≥ 50%: all assays above

CCN(C)/C=N/c1cc(Br)c(OC2Cc3ccc(Cl)cc3C2)nc1C (stereo not shown) [Q.233]
≥ 50%: all assays above

CCN(C)/C=N/c1cc(Br)c(OC2CCC3CCCCC3C2)nc1C (stereo not shown) [Q.027]
≥ 50%: all assays above

CCN(C)/C=N/c1cc(Br)c(OC2Cc3ccc(OC)cc3C2)nc1C (stereo not shown) [Q.199]
≥ 50%: all assays above

CCN(C)/C=N/c1cc(Br)c(OCc2cccc(C)c2C)nc1C [Q.175]
≥ 50%: all assays above

CCN(C)/C=N/c1cc(Br)c(OC(C)Cc2ccccc2C)nc1C (stereo not shown) [Q.353]
≥ 50%: all assays above

CCN(C)/C=N/c1cc(Br)c(OCc2ccccc2C(F)F)nc1C [Q.289]
≥ 50%: all assays above

CCCc1cccc(COc2nc(C)c(/N=C/N(C)CC)cc2Br)c1 [Q.346]
≥ 50%: all assays above

CCN(C)/C=N/c1cc(Br)c(OCc2cc(F)cc(F)c2)nc1C [Q.105]
≥ 50%: all assays above

C=Cc1cccc(C(C)Oc2nc(C)c(/N=C/N(C)CC)cc2Br)c1 (stereo not shown) [Q.278]
≥ 50%: all assays above

CCN(C)/C=N/c1cc(Br)c(OCc2ccns2)nc1C [Q.143]
≥ 50%: all assays above

CCN(C)/C=N/c1cc(Br)c(OC(C)CCC2CC2)nc1C (stereo not shown) [Q.357]
≥ 50%: all assays above
